{"source": "patent US10493070B2", "about": "(priority 2016, dated 2019)", "note": "pEC50: −log10 of the molar value.", "data": [{"system": "recombinant NL4-3 virus (NLRluc, Renilla luciferase in nef, Gag P373S)", "assay": "HIV cell culture assay (Renilla luciferase reporter virus in MT-2 cells)", "format": "cell-based", "conditions": "Renilla, NL43, read-out: 10% FBS EC50, 10% FBS, class symbols A/B/C", "procedure": "(§1) MT-2 cells and 293T cells were obtained from the NIH AIDS Research and Reference Reagent Program. MT-2 cells were propagated in RPMI 1640 media supplemented with 10% heat inactivated fetal bovine serum, […]. The 293T cells were propagated in DMEM media supplemented with 10% heat inactivated fetal bovine serum (FBS), 100 units/ml penicillin G and 100 μg/ml streptomycin. The proviral DNA clone of NL4-3 was obtained from the NIH AIDS Research and Reference Reagent Program. A recombinant NL4-3 virus, in which a section of the nef gene from NL4-3 was replaced with the Renilla luciferase gene, was used as a reference virus. In addition, residue Gag P373 was converted to P373S. Briefly, the recombinant virus was prepared by transfection of the altered proviral clone of NL4-3. Transfections were performed in 293T cells using LipofectAMINE PLUS from Invitrogen (Carlsbad, Calif.), according to manufacturer's instruction. The virus was titered in MT-2 cells using luciferase enzyme activity as a marker. Luciferase was quantitated using the Dual Luciferase kit from Promega (Madison, Wis.), with modifications to the manufacturer's protocol. The diluted Passive Lysis solution was pre-mixed with the re-suspended Luciferase Assay Reagent and the re-suspended Stop & Glo Substrate (2:1:1 ratio). Fifty (50) μL of the mixture was added to each aspirated well on assay plates and luciferase activity was measured immediately on a Wallac TriLux (Perkin-Elmer). Antiviral activities of inhibitors toward the recombinant virus were quantified by measuring luciferase activity in cells infected for 4-5 days with NLRluc recombinants in the presence serial dilutions of the inhibitor. Table 16 is the key for the data in Table 17.", "values": [{"molecule": "CN(C)c1cccc(C(=O)N2CC=C3C(C)(C)C(c4ccc(C(=O)O)cc4)=CC[C@]3(C)C2)c1", "note": "[Example 24]", "pEC50": "< 5.52"}, {"molecule": "CN(C)c1ccc(C(=O)N2CC=C3C(C)(C)C(c4ccc(C(=O)O)cc4)=CC[C@]3(C)C2)cc1", "note": "[Example 25]", "pEC50": "< 5.52"}, {"molecule": "CC1(C)C(c2ccc(C(=O)O)cc2)=CC[C@]2(C)CN(C(=O)c3cccc(N4CCOCC4)c3)CC=C12", "note": "[Example 27]", "pEC50": "< 5.52"}, {"molecule": "CC1(C)C(c2ccc(C(=O)O)cc2)=CC[C@]2(C)CN(C(=O)c3ccc(N4CCOCC4)cc3)CC=C12", "note": "[Example 28]", "pEC50": "< 5.52"}, {"molecule": "CN1CCN(c2cccc(C(=O)N3CC=C4C(C)(C)C(c5ccc(C(=O)O)cc5)=CC[C@]4(C)C3)c2)CC1", "note": "[Example 29]", "pEC50": "< 5.52"}, {"molecule": "CC1(C)C(c2ccc(C(=O)O)cc2)=CC[C@]2(C)CN(C(=O)c3ccc(CN4CCS(=O)(=O)CC4)cc3)CC=C12", "note": "[Example 31]", "pEC50": "< 5.52"}, {"molecule": "CC(C)(C)OC(=O)NCc1ccc(C(=O)N2CC=C3C(C)(C)C(c4ccc(C(=O)O)cc4)=CC[C@]3(C)C2)cc1", "note": "[Example 33]", "pEC50": "< 5.52"}, {"molecule": "CN(C)CCC(=O)N1CC=C2C(C)(C)C(c3ccc(C(=O)O)cc3)=CC[C@]2(C)C1", "note": "[Example 34]", "pEC50": "< 5.52"}, {"molecule": "CN(C)CC(=O)N1CC=C2C(C)(C)C(c3ccc(C(=O)O)cc3)=CC[C@]2(C)C1", "note": "[Example 35]", "pEC50": "< 5.52"}, {"molecule": "CC1(C)C(c2ccc(C(=O)O)cc2)=CC[C@]2(C)CN(C(=O)CCN3CCS(=O)(=O)CC3)CC=C12", "note": "[Example 36]", "pEC50": "< 5.52"}, {"molecule": "CC1(C)C(c2ccc(C(=O)O)cc2)=CC[C@]2(C)CN(C(=O)CN3CCS(=O)(=O)CC3)CC=C12", "note": "[Example 37]", "pEC50": "< 5.52"}, {"molecule": "CC1(C)C(c2ccc(C(=O)O)cc2)=CC[C@]2(C)CN(C(=O)c3cccc(CN4CCS(=O)(=O)CC4)c3)CC=C12", "note": "[Example 38]", "pEC50": "< 5.52"}, {"molecule": "CC1(C)C(c2ccc(C(=O)O)cc2)=CC[C@]2(C)CN(C(=O)c3ccc4[nH]cnc4c3)CC=C12", "note": "[Example 40]", "pEC50": "< 5.52"}, {"molecule": "Cc1nc2cc(C(=O)N3CC=C4C(C)(C)C(c5ccc(C(=O)O)cc5)=CC[C@]4(C)C3)ccc2[nH]1", "note": "[Example 41]", "pEC50": "< 5.52"}, {"molecule": "CC1(C)C(c2ccc(C(=O)O)cc2)=CC[C@]2(C)CN(C(=O)c3ccc4[nH]nnc4c3)CC=C12", "note": "[Example 42]", "pEC50": "< 5.52"}, {"molecule": "CC1(C)C(c2ccc(C(=O)O)cc2)=CC[C@]2(C)CN(C(=O)c3ccc4[nH]ccc4c3)CC=C12", "note": "[Example 43]", "pEC50": "< 5.52"}, {"molecule": "CC1(C)C(c2ccc(C(=O)O)cc2)=CC[C@]2(C)CN(C(=O)c3cncc(C(=O)O)c3)CC=C12", "note": "[Example 45]", "pEC50": "< 5.52"}, {"molecule": "CC1(C)C(c2ccc(C(=O)O)cc2)=CC[C@]2(C)CN(C(=O)c3ccc(CN)cc3)CC=C12", "note": "[Example 53]", "pEC50": "< 5.52"}, {"molecule": "CC(C)C[C@H](N)C(=O)N1CCC(C(=O)N2CC=C3C(C)(C)C(c4ccc(C(=O)O)cc4)=CC[C@]3(C)C2)(c2ccccc2)CC1", "note": "[Example 56]", "pEC50": "> 6.30"}, {"molecule": "CC1(C)C(c2ccc(C(=O)O)cc2)=CC[C@]2(C)CN(C(=O)c3cccc(C(=O)N4CC=C5C(C)(C)C(c6ccc(C(=O)O)cc6)=CC[C@]5(C)C4)c3)CC=C12", "note": "[Example 58, 4,4′-((8aS,8a′S)-isophthaloylbis(5,5,8a-trimethyl-1,2,3,5,8,8a-hexahydroisoquinoline-2,6-diyl))dibenzoic acid]", "pEC50": "> 6.30"}, {"molecule": "CC1(C)C(c2ccc(C(=O)O)cc2)=CC[C@]2(C)CN(C(=O)c3ccccc3C(=O)N3CC=C4C(C)(C)C(c5ccc(C(=O)O)cc5)=CC[C@]4(C)C3)CC=C12", "note": "[Example 60]", "pEC50": "5.52 to 6.30"}, {"molecule": "CC1(C)C(c2ccc(C(=O)O)cc2)=CC[C@]2(C)CN(C(=O)c3cccc(C(=O)N4CC=C5C(C)(C)C(c6ccc(C(=O)O)cc6)=CC[C@]5(C)C4)n3)CC=C12", "note": "[Example 61]", "pEC50": "< 5.52"}, {"molecule": "CC1(C)C(c2ccc(C(=O)O)cc2)=CC[C@]2(C)CN(C(=O)c3ccc(C(=O)N4CC=C5C(C)(C)C(c6ccc(C(=O)O)cc6)=CC[C@]5(C)C4)s3)CC=C12", "note": "[Example 62]", "pEC50": "< 5.52"}, {"molecule": "CC1(C)C(c2ccc(C(=O)O)cc2)=CC[C@]2(C)CN(C(=O)c3cncc(C(=O)N4CC=C5C(C)(C)C(c6ccc(C(=O)O)cc6)=CC[C@]5(C)C4)c3)CC=C12", "note": "[Example 63]", "pEC50": "< 5.52"}, {"molecule": "CC1(C)C(c2ccc(C(=O)O)cc2)=CC[C@]2(C)CN(C(=O)c3cccc(C(=O)NCCCN4CCS(=O)(=O)CC4)c3)CC=C12", "note": "[Example 66]", "pEC50": "< 5.52"}]}, {"system": "recombinant NL4-3 virus (NLRluc, Renilla luciferase in nef, Gag P373S)", "assay": "HIV cell culture assay (Renilla luciferase reporter virus in MT-2 cells)", "format": "cell-based", "conditions": "Renilla, NL43, read-out: 10% FBS EC50, 10% FBS, numeric values", "procedure": "as §1", "values": [{"molecule": "CC1(C)C(c2ccc(C(=O)O)cc2)=CC[C@]2(C)CN(C(=O)c3ccccc3N3CCOCC3)CC=C12", "note": "[Example 26]", "pEC50": 6.20}, {"molecule": "CN1CCN(c2ccc(C(=O)N3CC=C4C(C)(C)C(c5ccc(C(=O)O)cc5)=CC[C@]4(C)C3)cc2)CC1", "note": "[Example 30]", "pEC50": 5.64}, {"molecule": "COc1ccc(S(=O)(=O)Cc2ccccc2)cc1C(=O)N1CC=C2C(C)(C)C(c3ccc(C(=O)O)cc3)=CC[C@]2(C)C1", "note": "[Example 32]", "pEC50": 6.18}, {"molecule": "CC1(C)C(c2ccc(C(=O)O)cc2)=CC[C@]2(C)CN(C(=O)c3ccc4cc[nH]c4c3)CC=C12", "note": "[Example 39]", "pEC50": 5.83}, {"molecule": "CC1(C)C(c2ccc(C(=O)O)cc2)=CC[C@]2(C)CN(C(=O)c3ccccc3N3CCN(CCN4CCS(=O)(=O)CC4)CC3)CC=C12", "note": "[Example 44]", "pEC50": 6.28}, {"molecule": "CC(C)(C)OC(=O)N1CCC(C(=O)N2CC=C3C(C)(C)C(c4ccc(C(=O)O)cc4)=CC[C@]3(C)C2)(c2ccccc2)CC1", "note": "[Example 46]", "pEC50": 6.60}, {"molecule": "CC(C)(C)OC(=O)N1CCC(Cc2ccccc2)(C(=O)N2CC=C3C(C)(C)C(c4ccc(C(=O)O)cc4)=CC[C@]3(C)C2)CC1", "note": "[Example 47]", "pEC50": 5.97}, {"molecule": "CC(C)(C)OC(=O)N1CCC(C)(C(=O)N2CC=C3C(C)(C)C(c4ccc(C(=O)O)cc4)=CC[C@]3(C)C2)CC1", "note": "[Example 48]", "pEC50": 6.57}, {"molecule": "CC(C)C1(C(=O)N2CC=C3C(C)(C)C(c4ccc(C(=O)O)cc4)=CC[C@]3(C)C2)CCN(C(=O)OC(C)(C)C)CC1", "note": "[Example 49]", "pEC50": 5.93}, {"molecule": "CC(C)(C)OC(=O)N1CCC(C(=O)N2CC=C3C(C)(C)C(c4ccc(C(=O)O)cc4)=CC[C@]3(C)C2)(C2CCCCC2)CC1", "note": "[Example 50]", "pEC50": 6.54}, {"molecule": "CC1(C)C(c2ccc(C(=O)O)cc2)=CC[C@]2(C)CN(C(=O)c3ccccc3N3CCNCC3)CC=C12", "note": "[Example 51, (S)-4-(5,5,8a-trimethyl-2-(2-(piperazin-1-yl)benzoyl)-1,2,3,5,8,8a-hexahydroisoquinolin-6-yl)benzoic acid]", "pEC50": 6.06}, {"molecule": "CC1(C)C(c2ccc(C(=O)O)cc2)=CC[C@]2(C)CN(C(=O)[C@H]3CC[C@H](N)CC3)CC=C12", "note": "[Example 52]", "pEC50": 5.44}, {"molecule": "CC1(C)C(c2ccc(C(=O)O)cc2)=CC[C@]2(C)CN(C(=O)C3(Cc4ccccc4)CCNCC3)CC=C12", "note": "[Example 55]", "pEC50": 5.52}, {"molecule": "CC(C)C[C@@H](N)C(=O)N1CCC(C(=O)N2CC=C3C(C)(C)C(c4ccc(C(=O)O)cc4)=CC[C@]3(C)C2)(c2ccccc2)CC1", "note": "[Example 57]", "pEC50": 6.83}, {"molecule": "CC1(C)C(c2ccc(C(=O)O)cc2)=CC[C@]2(C)CN(C(=O)c3ccc(C(=O)N4CC=C5C(C)(C)C(c6ccc(C(=O)O)cc6)=CC[C@]5(C)C4)cc3)CC=C12", "note": "[Example 59]", "pEC50": 5.98}, {"molecule": "CC1(C)C(c2ccc(C(=O)O)cc2)=CC[C@]2(C)CN(C(=O)c3cscc3C(=O)N3CC=C4C(C)(C)C(c5ccc(C(=O)O)cc5)=CC[C@]4(C)C3)CC=C12", "note": "[Example 64]", "pEC50": 5.97}, {"molecule": "CC1(C)C(c2ccc(C(=O)O)cc2)=CC[C@]2(C)CN(C(=O)C3C4CCC(C4)C3C(=O)N3CC=C4C(C)(C)C(c5ccc(C(=O)O)cc5)=CC[C@]4(C)C3)CC=C12", "note": "(stereo partly drawn) [Example 65]", "pEC50": 5.55}]}]}
